The record followed here is ChEMBL document CHEMBL5338802, “To Fold or Not to Fold: Diastereomeric Optimization of an α-Helical Antimicrobial Peptide” (J Med Chem, 2023).

A value given as a limit tells only on which side of the number the result lay.

The series has as its system Erythrocyte. In words: Hemolytic activity in human RBC incubated for 4 hrs by visual analysis. In kind it is toxicity, cell-based.

Compound `CC(C)C[C@H](NC(=O)[C@H](CC(C)C)NC(=O)[C@H](CC(C)C)NC(=O)[C@H](CCCCN)NC(=O)[C@H](CC(C)C)NC(=O)[C@H](CC(C)C)NC(=O)[C@@H](CCCCN)NC(=O)[C@H](CC(C)C)NC(=O)[C@H](CC(C)C)NC(=O)[C@@H](CCCCN)NC(=O)[C@H](N)CCCCN)C(N)=O` registered an MHC of under 15.6 µg/mL.
Then `CC(C)C[C@H](NC(=O)[C@H](CC(C)C)NC(=O)[C@@H](CCCCN)NC(=O)[C@H](CC(C)C)NC(=O)[C@H](CC(C)C)NC(=O)[C@@H](CCCCN)NC(=O)[C@H](N)CCCCN)C(=O)N[C@@H](CCCCN)C(=O)N[C@@H](CC(C)C)C(=O)N[C@H](CC(C)C)C(=O)N[C@H](CC(C)C)C(N)=O`, with over 2000 µg/mL; and `CC(C)C[C@H](NC(=O)[C@H](CC(C)C)NC(=O)[C@@H](CCCCN)NC(=O)[C@H](CC(C)C)NC(=O)[C@H](CC(C)C)NC(=O)[C@@H](CCCCN)NC(=O)[C@H](CC(C)C)NC(=O)[C@H](CC(C)C)NC(=O)[C@@H](CCCCN)NC(=O)[C@H](N)CCCCN)C(=O)N[C@H](CC(C)C)C(N)=O`, with over 2000 µg/mL; and `CC(C)C[C@H](NC(=O)[C@H](CC(C)C)NC(=O)[C@H](CC(C)C)NC(=O)[C@H](CCCCN)NC(=O)[C@@H](CC(C)C)NC(=O)[C@@H](CC(C)C)NC(=O)[C@H](CCCCN)NC(=O)[C@@H](CC(C)C)NC(=O)[C@@H](CC(C)C)NC(=O)[C@@H](CCCCN)NC(=O)[C@@H](N)CCCCN)C(N)=O`, with 250 µg/mL.
As for `CC(C)C[C@H](NC(=O)[C@H](CC(C)C)NC(=O)[C@@H](CC(C)C)NC(=O)[C@@H](CCCCN)NC(=O)[C@H](CC(C)C)NC(=O)[C@H](CC(C)C)NC(=O)[C@H](CCCCN)NC(=O)[C@@H](CC(C)C)NC(=O)[C@@H](CC(C)C)NC(=O)[C@H](CCCCN)NC(=O)[C@@H](N)CCCCN)C(N)=O`, the MHC turned out to be 1000 µg/mL.
Then `CC(C)C[C@H](NC(=O)[C@H](CC(C)C)NC(=O)[C@H](CC(C)C)NC(=O)[C@@H](CCCCN)NC(=O)[C@@H](CC(C)C)NC(=O)[C@@H](CC(C)C)NC(=O)[C@@H](CCCCN)NC(=O)[C@H](CC(C)C)NC(=O)[C@H](CC(C)C)NC(=O)[C@H](CCCCN)NC(=O)[C@@H](N)CCCCN)C(N)=O`, with 1000 µg/mL; and `CC(C)C[C@H](NC(=O)[C@H](CCCCN)NC(=O)[C@H](CC(C)C)NC(=O)[C@H](CC(C)C)NC(=O)[C@@H](CCCCN)NC(=O)[C@H](CC(C)C)NC(=O)[C@H](CC(C)C)NC(=O)[C@@H](CCCCN)NC(=O)[C@H](N)CCCCN)C(=O)N[C@@H](CC(C)C)C(=O)N[C@H](CC(C)C)C(N)=O`, with 1000 µg/mL.
The compound `CC(C)C[C@H](NC(=O)[C@@H](CC(C)C)NC(=O)[C@H](CCCCN)NC(=O)[C@@H](CC(C)C)NC(=O)[C@H](CC(C)C)NC(=O)[C@@H](CCCCN)NC(=O)[C@H](CC(C)C)NC(=O)[C@@H](CC(C)C)NC(=O)[C@H](CCCCN)NC(=O)[C@H](N)CCCCN)C(=O)N[C@H](CC(C)C)C(N)=O` returned an MHC of over 2000 µg/mL.
`CC(C)C[C@H](NC(=O)[C@H](CC(C)C)NC(=O)[C@H](CC(C)C)NC(=O)[C@@H](CCCCN)NC(=O)[C@@H](CC(C)C)NC(=O)[C@@H](CC(C)C)NC(=O)[C@@H](CCCCN)NC(=O)[C@@H](CC(C)C)NC(=O)[C@H](CC(C)C)NC(=O)[C@H](CCCCN)NC(=O)[C@@H](N)CCCCN)C(N)=O`: the MHC came to 250 µg/mL.
Then `CC(C)C[C@H](NC(=O)[C@@H](CC(C)C)NC(=O)[C@@H](CC(C)C)NC(=O)[C@H](CCCCN)NC(=O)[C@H](CC(C)C)NC(=O)[C@H](CC(C)C)NC(=O)[C@H](CCCCN)NC(=O)[C@H](CC(C)C)NC(=O)[C@@H](CC(C)C)NC(=O)[C@@H](CCCCN)NC(=O)[C@@H](N)CCCCN)C(N)=O`, with 1000 µg/mL.
With `CC(C)C[C@H](NC(=O)[C@H](CC(C)C)NC(=O)[C@H](CC(C)C)NC(=O)[C@H](CCCCN)NC(=O)[C@@H](CC(C)C)NC(=O)[C@@H](CC(C)C)NC(=O)[C@H](CCCCN)NC(=O)[C@H](CC(C)C)NC(=O)[C@H](CC(C)C)NC(=O)[C@H](CCCCN)NC(=O)[C@@H](N)CCCCN)C(N)=O` the figure was 500 µg/mL.
